Here are results for five molecules from PMC9145622, “Synthesis, Biological Evaluation, and Docking Studies of Antagonistic Hydroxylated Arecaidine Esters Targeting mAChRs” (Molecules, 2022).

One assay deals with T1, hM5 (Homo sapiens, UniProt P08912).
T1 sequence (P08912 1-532): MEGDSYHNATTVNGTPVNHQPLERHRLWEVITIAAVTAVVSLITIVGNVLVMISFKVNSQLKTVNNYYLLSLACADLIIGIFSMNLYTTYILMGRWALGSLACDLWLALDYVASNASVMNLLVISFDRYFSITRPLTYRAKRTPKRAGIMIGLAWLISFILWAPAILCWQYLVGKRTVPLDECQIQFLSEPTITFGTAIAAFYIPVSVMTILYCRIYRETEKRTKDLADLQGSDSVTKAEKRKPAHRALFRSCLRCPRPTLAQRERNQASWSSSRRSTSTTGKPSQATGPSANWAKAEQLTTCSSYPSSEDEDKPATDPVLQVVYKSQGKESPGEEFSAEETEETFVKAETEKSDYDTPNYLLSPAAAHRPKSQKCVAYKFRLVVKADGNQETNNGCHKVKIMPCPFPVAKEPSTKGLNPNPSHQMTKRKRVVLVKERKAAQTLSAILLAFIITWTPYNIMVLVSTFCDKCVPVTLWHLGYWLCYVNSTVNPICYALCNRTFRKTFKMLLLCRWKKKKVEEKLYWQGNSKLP
Nature of the assay: Competitive [3H]NMS radioligand binding, CHO-K1 membranes expressing hM5. The settings on record: for Ki: [3H]NMS, CHO-hM5 cell membrane preparations, read-out: Affinity: Ki ± SD hM5. The source says: (§1) The arecaidine esters’ affinities towards the human mAChR subtypes hM1–hM5 were studied in a competitive radioligand binding assay using CHO-K1 cell membrane homogenates expressing a single mAChR subtype and tritiated N-methyl scopolamine methyl chloride ([^3H]NMS). To speed up our affinity testing regime, we subjected all test substances to preliminary single-concentration displacement assays, as described previously. Compounds with percent displacements below 75% at any of the subtypes were dropped from further investigations (Table S1). For compounds meeting the percent displacement threshold (8c, 10b, 10c, 17b, 18b, and 25), inhibition constants (Ki) were assessed in dose-dependent displacement experiments (Table 2).
(§2) Cell membranes bearing hM1-hM5 receptors were prepared as described previously. Briefly, stably transfected CHO-K1 cells were grown to at least 80% confluency in T175 flasks, washed with ice-cold DPBS, and scraped into a mixture of ice-cold 2 mL 10 mM Tris-HCl, 1 mM EDTA-buffer, pH 7.4 and 200 µL protease inhibitor. A cell homogenate was prepared by passing the cell suspension through a G29 needle. The cell homogenates corresponding to two T175 flasks were combined and subsequently centrifuged (10 min, 1000× g, 4 °C). Ultracentrifugation of the supernatant (1 h, 100,000× g, 4 °C) yielded a membrane pellet, which was suspended in 250 µL 50 mM Tris-HCl buffer, pH 7.4 and stored at −80 °C.
(§3) Then, 5 µL of test compound in DMSO, 50 µL of [^3H]NMS in assay buffer, and 445 µL of membrane suspension in assay buffer were incubated for 90 min at 23 °C in PP tubes. Maximum binding was measured by using 5 µL DMSO, and nonspecific binding was measured by using 5 µL of 1 µM scopolamine in DMSO. The effective concentration of [^3H]NMS was 0.2 nM, 0.3 nM, 0.8 nM, 0.2 nM, and 1 nM for M1–M5 and 4–30 µg membrane were used per tube. The membrane-bound radioactivity was recovered by filtration through Whatman™ GF/B glass fiber filters presoaked in aqueous 0.1% PEI using an M-36 tygon tubed cell harvester (Brandel®, Gaithersburg, MD, USA). Membranes were washed three times with ice-cold washing buffer (50 mM Tris, pH 7.4) before being dried, transferred to 2 mL scintillation cocktail (UltimaGold™, high flashpoint LSC cocktail, PerkinElmer, Waltham, MA, USA) and counted in a β-counter (Hidex TDCR liquid scintillation counter in CPM mode). IC50 values were calculated by a variable slope logistic regression using at least five distinct concentrations of test compounds, pipetted in triplicates.

The target of another assay is hM3 (Homo sapiens, UniProt P20309). Nature of the assay: Competitive [3H]NMS radioligand binding, CHO-K1 membranes expressing hM3. The settings on record: [3H]NMS, CHO-hM3 cell membrane preparations; read-out: Affinity: Ki ± SD hM3.
Description: as §1, §2, §3

The target in another assay is T2, hM4 (Homo sapiens, UniProt P08173).
T2 sequence (P08173 1-479): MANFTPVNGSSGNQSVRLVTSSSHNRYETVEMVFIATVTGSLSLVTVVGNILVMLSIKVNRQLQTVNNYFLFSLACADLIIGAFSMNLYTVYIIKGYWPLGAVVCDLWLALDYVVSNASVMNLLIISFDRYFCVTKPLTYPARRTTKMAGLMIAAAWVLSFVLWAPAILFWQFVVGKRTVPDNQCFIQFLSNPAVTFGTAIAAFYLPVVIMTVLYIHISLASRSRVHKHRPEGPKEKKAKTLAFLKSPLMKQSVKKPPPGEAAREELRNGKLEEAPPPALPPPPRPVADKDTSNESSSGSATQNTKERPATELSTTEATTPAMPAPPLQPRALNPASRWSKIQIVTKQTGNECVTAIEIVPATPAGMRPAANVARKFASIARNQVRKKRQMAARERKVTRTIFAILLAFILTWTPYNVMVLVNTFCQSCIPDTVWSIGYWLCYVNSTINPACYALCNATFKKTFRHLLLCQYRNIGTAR
The experiment in a line: Competitive [3H]NMS radioligand binding, CHO-K1 membranes expressing hM4. The settings on record: [3H]NMS, CHO-hM4 cell membrane preparations; read-out: Affinity: Ki ± SD hM4.
Description: as §1, §2, §3

hM3, sequence (P20309 whole entry): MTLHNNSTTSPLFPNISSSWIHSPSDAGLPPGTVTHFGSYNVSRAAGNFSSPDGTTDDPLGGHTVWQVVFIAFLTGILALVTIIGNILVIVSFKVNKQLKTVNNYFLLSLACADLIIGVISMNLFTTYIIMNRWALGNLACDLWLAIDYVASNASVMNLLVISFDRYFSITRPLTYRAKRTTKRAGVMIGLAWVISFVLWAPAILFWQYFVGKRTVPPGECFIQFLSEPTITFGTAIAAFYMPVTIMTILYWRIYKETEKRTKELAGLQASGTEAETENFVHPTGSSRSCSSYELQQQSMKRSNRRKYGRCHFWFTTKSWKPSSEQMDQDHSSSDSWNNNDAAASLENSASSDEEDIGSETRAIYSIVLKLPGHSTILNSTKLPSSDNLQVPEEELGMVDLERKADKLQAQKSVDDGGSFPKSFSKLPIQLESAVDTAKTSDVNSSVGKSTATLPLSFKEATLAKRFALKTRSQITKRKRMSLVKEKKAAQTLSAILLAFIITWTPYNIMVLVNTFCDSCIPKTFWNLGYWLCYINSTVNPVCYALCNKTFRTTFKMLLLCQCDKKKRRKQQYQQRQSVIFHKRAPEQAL

For the molecule `CN1CCC=C(C(=O)OC(c2ccccc2)c2cccc(O)c2)C1` (stereo not shown) [Compound 17b, (3-hydroxyphenyl)(phenyl)methyl 1-methyl-1,2,5,6-tetrahydropyridine-3-carboxylate], the values for the Ki at hM5, on hM3 and on hM4 were 11 ± 1.5 nM, 20.4 ± 1.2 nM and 18.4 ± 5.8 nM, respectively.

Regarding `CN1CCC=C(C(=O)OCc2ccc(CO)cc2)C1` [Compound 8c, 4-(hydroxymethyl)benzyl 1-methyl-1,2,5,6-tetrahydropyridine-3-carboxylate], the Ki – broadly, a measure of affinity in units of concentration, obtained from inhibition or displacement – is 417 ± 73 nM on hM5, 663 ± 56 nM at hM3 and 697 ± 132 nM on hM4.

Regarding `CN1CCC=C(C(=O)OCC(O)(c2ccccc2)c2ccccc2)C1` [Compound 25, 2-hydroxy-2,2-diphenylethyl 1-methyl-1,2,5,6-tetrahydropyridine-3-carboxylate], the Ki was determined as 284 ± 62 nM on hM5, 283 ± 20 nM on hM3 and 217 ± 23 nM at hM4.

With `CN1CCC=C(C(=O)OC(c2ccccc2)c2ccc(CO)cc2)C1` (stereo not shown) [Compound 10c, (4-(hydroxymethyl)phenyl)(phenyl)methyl 1-methyl-1,2,5,6-tetrahydropyridine-3-carboxylate], the Ki came to 72 ± 13 nM on hM5, 150 ± 26 nM at hM3 and 93 ± 23 nM on hM4.

For the molecule `CN1CCC=C(C(=O)OCc2cccc(O)c2)C1` [Compound 18b, 3-hydroxybenzyl 1-methyl-1,2,5,6-tetrahydropyridine-3-carboxylate], the Ki was found to be 90 ± 27 nM at hM5, 188 ± 18 nM at hM3 and 634 ± 90 nM at hM4. The “preference for hM5R over hM1R” value at hM5 (in vitro binding affinities) is reported as “almost threefold”.
